Data published in US20020010341A1, “Use of thioamide oxazolidinones for the treatment of bone resorption and osteoporosis” (priority 2000, published 2002).

Experiments:
Format in all cases: in vivo
rats [1] = assay: 4-week oral toxicity study in rats with 4 and 8 week recovery
Description: (§1) The toxicity of the compound of Example 2 was evaluated in rats treated orally with 30, 60, 120, or 200 mg/kg/day of the compound of Example 2, water, or vehicle (containing 80% propylene glycol, 5% cremophor, and 30-mg/ml povidone) for 4 weeks given in 2 divided doses at 8 hours apart. Reversibility of drug-induced changes was determined 4 and 8 weeks following drug withdrawal. The pathogenesis of the bone changes was evaluated in a study in rats treated with 200 mg/kg/day for 3 or 7 days. TGF-betal protein levels in bone marrow supernatants and serum were determined using ELISA at the end of each of the dosing period. Toxicity was evaluated using clinical, hematological, biochemical, and pathologic end points.

rats [2] = assay: Pathogenesis of the bone changes, rats treated for 3 or 7 days; settings: oral
Description: as §1

TGF-betal protein = TGF-betal protein levels in bone marrow supernatants and serum by ELISA; settings: rats
Description: as §1

## CC(=S)NC[C@H]1CN(c2ccc(N3CC[S+]([O-])CC3)c(F)c2)C(=O)O1 [Example 2, (S)-N-[[3-[3-Fluoro-4-(4-thiomorpholinyl)phenyl] -2-oxo-5-oxazolidinyl]methyl]thio-acetamide, thiomorpholine S-oxide]
Rats [1]; 4 and 8 weeks after drug withdrawal
  persistence of newly formed bone spicules after drug withdrawal: still present after 4 and 8 weeks of drug withdrawal
Rats [1]; oral
  bone marrow changes: did not show changes other than hypocellularity related to hematopoietic suppression
Rats [1]; oral, 120 and 200 mg/kg/day
  bone mass and density of trabecular (spongy) bone of sternum, femur/tibia, vertebrae, basal cranium: caused an increase in bone mass and density (hyperostosis)
  endosteal cortical bone formation: occurred rarely
  toxic effects: anorexia, weight loss, GI effects, hematopoietic suppression and lymphoid depletion
Rats [1]; oral, Day 28
  marrow cavity histology at Day 28: marrow cavities were traversed by abundant normal looking trabecular bone
Rats [1]; oral, all doses but 200 mg/kg/day (30, 60, 120 mg/kg/day), 4 weeks, 2 divided doses
  clinical tolerability: well tolerated clinically
Rats [2]; 200 mg/kg/day for 3 or 7 days
  onset of hyperostosis (osteoblast proliferation, osteoid deposition): became evident by Day 7
Rats [2]; 200 mg/kg/day, Day 3
  osseous changes on Day 3: no significant osseous changes
TGF-betal protein; Day 3, ELISA
  Serum TGF-beta I: slightly but significantly decreased
  TGF-betal in marrow supernatants: modestly but significantly increased
TGF-betal protein; Day 7 or 28, ELISA
  TGF-betal in marrow supernatants: not on Day 7 or 28
